What was measured:
[1] = tested on: murine collagen-induced arthritis (CIA); experiment: Clinical evaluation of arthritis activity (clinical arthritis index, incidence) in collagen-induced arthritis mice; type: in vivo, mouse; set-up: CAI-AUC Mean / Incidence-AUC Mean: unit not given here; conditions: for CAI Mean: naltrexone (Revia Tablet) 10 mg/kg oral once/day
Experimental: As a model of murine collagen-induced arthritis (CIA), 6 to 10 week-old male mice of DBA/1 J strain was prepared. […] The number of experimental animals per cage was kept under 6, and a cage was exchanged twice a week and feed was supplied.
A 2 mg/mL collagen solution was prepared by dissolving bovine type 2 collagen in 10 mM acetic acid. After emulsifying by mixing 2 mg/mL of Complete Freund's adjuvant and collagen solution in a 1:1 (v/v) ratio, it was intradermally injected into the tail of mouse at a dose of 100 μl/animal (first immunization, day 0). After emulsifying by mixing incomplete Freund's adjuvant […] and collagen solution in a 1:1 (v/v) ratio on the 21th day, it was intradermally injected into the tail of mouse at a dose of 100 μl/animal (the secondary immunization, on the 21th day). After that, mice were randomly divided into groups and assigned to experimental groups.
The refrigerated test substance was standed at room temperature 1 hour before administration and dissolved in 0.15 mL of water for injection. 0.15 mL of the test substance was filled using a syringe with a 21 G needle. The needle was changed to 23 G within 2 minutes after filling and the mice were injected.
(§1) After administration of the test substance to the collagen-induced arthritis mouse model, the occurrence and level of inflammation were regularly observed from the date of group separation to the end of the experiment (the 41th day). Inflammation level was given a score of 0 to 4 for each paw according to the criteria in Table 4 below, and the sum was used as a clinical arthritis index (CAI).
When the clinical index of each paw was 2 score or higher, it was determined that arthritis occurred, and the incidence was defined as 100% when arthritis occurred in […].
as §1, with “end date” for “end”, “above,” for “below,”
as §1, with “above,” for “below,”

[2] = tested on: murine collagen-induced arthritis (CIA); experiment: Histological estimation of hind paw tissue, hematoxylin/eosin staining, CIA mice; type: in vivo, mouse; set-up: scale not given here; conditions: day 41
Experimental: (§2) Mice were sacrificed on the 41th day, which is the end of the experiment, and the tissues of the hind paws were stained with hematoxylin/eosin. Hematoxylin/eosin staining was used to evaluate the activity of inflammation in the arthritic tissue, and toluidine blue staining was performed to confirm the histological therapeutic effect on cartilage destruction.
The hind paw tissue of the mouse was stained with hematoxylin/eosin, and 4 sites (100 magnification) for each tissue were photographed. Two or more investigators evaluated the items of synovial hyperplasia, pannus formation, cartilage destruction, and bone erosion for hematoxylin/eosin staining. The scoring criteria for each item were described in Table 7, and the average score of 4 sites was calculated as the score of each tissue.
Hematoxylin/eosin staining was performed and evaluated in the same manner as in Example 2.3. (1) above, and the score for items of synovial hyperplasia, pannus formation, cartilage destruction, and bone erosion was calculated by scoring each tissue as the average of the score of 4 sites based on Table 7 above.

[3] = tested on: murine collagen-induced arthritis (CIA); experiment: Histological estimation of hind paw tissue, toluidine blue staining, CIA mice; type: in vivo, mouse; set-up: scale not given here; conditions: day 41
Experimental: as §2
The hind paw tissue of the mouse was stained with toluidine blue, and 4 sites (100 magnification) for each tissue were photographed. Two or more investigators evaluated the items of matrix staining, surface regularity, and cartilage thickness. The scoring criteria for each item was described in Table 9, and the average score of 4 sites was calculated as the score of each
(§3) In the same manner as in Example 2.3. (2), the hind paw tissue of the mouse was stained with toluidine blue, and items such as photographing and matrix staining, surface regularity, and cartilage thickness were evaluated. The scoring criteria for each item were described in Table 9, and the average score of 4 sites was calculated as the score of each tissue.
as §3, with “2.3. (2) above,” for “2.3. (2),”, “item is” for “item were”

[4] = Safety assessment in vivo by body weight, CIA mice; conditions: Example 3, CIA mouse, MTX 1 mg/kg ip twice/week, Xeljanz 10 mg/kg oral once/day, MTX 1 mg/kg + Q-DDS 3 mg/mouse; for D23 body weight Mean: day 23 (baseline); for D41 body weight Mean: day 41; for Change of body weight (%, D23 body weight 100%) Mean: day 41 vs day 23
Experimental: The safety in vivo of the test substance was evaluated by measuring the body weight of mouse in each administration group of Example 4.1.
For the safety evaluation of the test substance, the body weight of mouse was measured daily from before the start of administration (The 23th day) to just before the end of administration (The 41th day), and the body weight (%) of the mouse for each administration group over the time (day) and the body weight on the 41th day were shown in FIG. 16A, FIG. 16B and Table 27.

[5] = tested on: murine collagen-induced arthritis (CIA); experiment: Imaging evaluation of arthritis using micro-CT, CIA mice; type: in vivo; conditions: Example 3, CIA mouse; MTX 1 mg/kg ip twice/week; Xeljanz 10 mg/kg oral once/day; MTX 1 mg/kg + Q-DDS 3 mg/mouse
Experimental: (§4) The radiographs were 3D rendered using the Quantum FX μCT imaging system (Perkin Elmer, MA), and then the radiological score was evaluated, and the bone volume ratio (Bone volume [BV]/Tissue volume [Tissue volume; TV]) and bone surface density (Bone surface area (BS)/Bone volume (BV)) were also measured. Two or more investigators performed blind evaluation for joint destruction, and the indicators in Table 17 below were used as the scoring criteria. The average value of the researchers' blind evaluation data was used as the score, and the average score of the paw tissue was calculated as the score of each group.
as §4, with “[BV]/Tissue” for “[BV]/Tissue volume [Tissue”, “TV)” for “TV])”, “(BV)), and cortical bone thickness” for “(BV))”, “researchers” for “investigators”, “above” for “below”

[6] = Example 2, CIA mouse, methotrexate 1 mg/kg ip twice/week, naltrexone 10 mg/kg oral once/day, naltrexone DDS 3 mg/mouse sc once on day 23
[7] = Example 2, CIA mouse, methotrexate 1 mg/kg ip twice/week, naltrexone DDS 3 mg/mouse sc once on day 23
[8] = Example 3, CIA mouse, MTX 1 mg/kg ip twice/week, Xeljanz 10 mg/kg oral once/day, MTX 1 mg/kg + Q-DDS 3 mg/mouse
[9] = Example 2, CIA mouse, MTX 1 mg/kg, naltrexone 10 mg/kg oral, naltrexone DDS 3 mg/mouse

Row | SMILES | Incidence (%) Mean [1, 6] [%] | CAI Mean [1, 7] | CAI (D41) Mean [1, 8] | CAI-AUC Mean [1, 8] | Incidence (%) Mean [1, 8] [%] | Incidence-AUC Mean [1, 8] | Bone erosion score Mean (hematoxylin/eosin) [2, 9] | Cartilage destruction score Mean (hematoxylin/eosin) [2, 9] | Pannus formation score Mean (hematoxylin/eosin) [2, 9] | Synovial hyperplasia score Mean (hematoxylin/eosin) [2, 9] | Bone erosion score Mean (hematoxylin/eosin) [2, 8] | Cartilage destruction score Mean (hematoxylin/eosin) [2, 8] | Pannus formation score Mean (hematoxylin/eosin) [2, 8] | Synovial hyperplasia score Mean (hematoxylin/eosin) [2, 8] | Cartilage thickness score Mean (toluidine blue) [3, 9] | Matrix staining score Mean (toluidine blue) [3, 9] | Surface regularity score Mean (toluidine blue) [3, 9] | Cartilage thickness score Mean (toluidine blue) [3, 8] | Matrix staining score Mean (toluidine blue) [3, 8] | Surface regularity score Mean (toluidine blue) [3, 8] | also measured
1 | CN(Cc1cnc2nc(N)nc(N)c2n1)c1ccc(C(=O)N[C@@H](CCC(=O)O)C(=O)O)cc1 [Methotrexate, methotrexate] | 20.83 | 5.92 | 6.35 | 71.20 | 30.0 | 170.0 | 0.08 | 0.50 | 0.14 | 0.91 | 0.92 | 1.02 | 0.92 | 1.38 | 0.11 | 0.61 | 0.34 | 0.38 | 1.15 | 1.02 | CAI-AUC Mean [1, 6]: 46.6; Incidence-AUC Mean [1, 6]: 185.4; D23 body weight Mean [4]: 22.7 g; D41 body weight Mean [4]: 23.8 g; Change of body weight (%, D23 body weight 100%) Mean [4]: 104.7%; Bone surface area/bone volume (mm^−1) Mean (micro-CT) [5]: 6.12 mm^−1; Bone volume/tissue volume (%) Mean (micro-CT) [5]: 31.25%; Radiological score Mean (joint destruction, micro-CT) [5]: 1.67
2 | O=C1CC[C@@]2(O)[C@H]3Cc4ccc(O)c5c4[C@@]2(CCN3CC2CC2)[C@H]1O5 [Naltrexone, 17-(cyclopropylmethyl)-4,5α-epoxy-3,14-dihydroxymorphinan-6-one] | 41.67 | 8.25 |  |  |  |  | 0.58 | 0.98 | 0.58 | 1.27 |  |  |  |  | 0.39 | 0.92 | 0.80 |  |  |  | 
3 | C[C@@H]1CCN(C(=O)CC#N)C[C@@H]1N(C)c1ncnc2[nH]ccc12 [Xeljanz ®, Tofacitinib] |  |  | 6.25 | 74.50 | 27.5 | 263.8 |  |  |  |  | 1.13 | 1.38 | 1.13 | 1.56 |  |  |  | 0.56 | 1.42 | 1.13 | D23 body weight Mean [4]: 21.7 g; D41 body weight Mean [4]: 21.6 g; Change of body weight (%, D23 body weight 100%) Mean [4]: 99.6%; Bone surface area/bone volume (mm^−1) Mean (micro-CT) [5]: 6.52 mm^−1; Bone volume/tissue volume (%) Mean (micro-CT) [5]: 25.27%; Radiological score Mean (joint destruction, micro-CT) [5]: 2.08

Reference: patent US11730731B2 (INVENTAGE LAB INC., priority 2021, dated 2023)
